Reference: patent publication US11820975B2, “Human blood brain barrier model” (National Research Council of Canada, priority 2014, dated 2023)

Assays:
AF-iPSC-BECs [1] = type: in vitro ADME, human; details: AF-iPSC-BECs vs. HBMECs (Cell Systems), FIG. 6C
AF-iPSC-derived neurons = type: cell-based, human
AF-iPSC-BECs [2] = type: cell-based, human; details: BBB model cultured with the agent; ACMx2 for 24 hours; FIG. 7A-B

O=C([O-])c1ccccc1-c1c2ccc(=O)cc-2oc2cc([O-])ccc12.[Na+].[Na+] [Sodium fluorescein]
Sodium fluorescein permeability of AF-iPSC-BECs compared with HBMECs (AF-iPSC-BECs [1]): significantly lower

NC1=N[C@H](O)[C@H]2[C@H]3O[C@]4(O)O[C@@H]([C@@H](O)[C@@]2(N1)[C@@H]4O)[C@]3(O)CO [TTX, tetrodotoxin]
Effect on spiking activity (AF-iPSC-derived neurons): eliminated spiking activity

C[C@]12CCC(=O)C=C1CC[C@@H]1[C@@H]2[C@@H](O)C[C@@]2(C)[C@H]1CC[C@]2(O)C(=O)CO [hydrocortisone]
Change in TEER value (AF-iPSC-BECs [2]): significant increase
